Literature values in patent US12030986B2, “Sustained release composition using biobased biodegradable hyperbranched polyesters” (CENTRAL MICHIGAN UNIVERSITY, priority 2014, dated 2024).

Structure (SMILES)	pKa
O=C(O)[C@@H]1C[C@@H](O)CN1 (relative stereo) [trans-4-hydroxyproline]	1.8
O=P(O)(O)O[C@H]1[C@H](OP(=O)(O)O)[C@@H](OP(=O)(O)O)[C@H](OP(=O)(O)O)[C@@H](OP(=O)(O)O)[C@H]1OP(=O)(O)O [Phytic, phytic acid]	1.8
N[C@@H](CC(=O)O)C(=O)O [aspartic]	2.0
O=C(O)/C=C(/CC(=O)O)C(=O)O [cis-aconitic]	2.0
NC(CS(=O)(=O)O)C(=O)O (stereo not drawn) [cysteic]	1.3
N[C@@H](CCC(=O)O)C(=O)O [glutamic]	2.1
O=C(O)c1cccnc1 [nicotinic]	2.2

Other lines, results leading:

pKa	Structure (SMILES)
1.6	N[C@@H](CCSSCC[C@H](N)C(=O)O)C(=O)O [homocystine]
2.2	CNCC(=O)O [methlyglycine]
1.0	O=C(O)c1ccccn1 [picolinic acid]
2.4	CC(=O)C(=O)O [pyruvic]
2.1	C[C@@H](O)[C@H](N)C(=O)O [threonine]
